Results as given in PMC10762068, “Selective blockade of Cav1.2 (α1C) versus Cav1.3 (α1D) L-type calcium channels by the black mamba toxin calciseptine” (Nature Communications, 2024).
Entries after “also recorded” stand apart in the source; their conditions may differ. Positions of bridges follow the written chain, without caps; N, C: chain ends. No end group written: not given here.

Columns and labels:
[1] = test system: DHP binding site, brain synaptosomes; conditions: at a rather high concentration; cited from earlier work
Text: DHPs are prototypical organic blockers of L-type calcium channels widely used in therapeutical applications.

Cav1.3_42a = experiment: Whole cell recording of ICav1.3-42a in HEK-293T cells; format: cell-based; conditions: for L-type Ca2+ current density: mean ± SEM, n=9
Procedure: HEK-293T (RRID:CVCL_2737) were obtained from the European Collection of Authenticated Cell Cultures (ECACC 96121229). The identity of HEK-293T has been confirmed by STR profiling and the cells have been eradicated from mycoplasma at ECACC. We routinely tested the cells for the absence of the mycoplasma contamination. Cells were cultivated at 37 °C in DMEM supplemented with GlutaMax, 10% fetal bovine serum and 1% penicillin/streptomycin (Invitrogen, Fisher Scientific, France). Transfections were performed using jet-PEI (Ozyme, France) with a DNA mix containing either the plasmids that code for Cav1.2-GFP, β2a and α2δ (0.8 µg of each) or either the plasmids that code for Cav1.3 (with and without exon 42a), or Cav2.1, or either Cav2.2 combined with β2a and α2δ (0.8 µg of each supplemented with 0.025 µg of a plasmid coding for GFP). For Cav3.1 expression β2a and α2δ subunits were omitted. Plasmids coding for β2a, α2δ and Cav1.3 were created as described previously. Plasmid coding for Cav1.2-GFP was obtained from Dr. Catalucci[60]. After transfection cells were placed at 30 °C for 2–3 days and dissociated with Versene (Invitrogen, Fisher Scientific, France) and plated at a density of ~35 × 10^3 cells per 35 mm Petri dish for electrophysiological recordings, which were performed the following day.
Macroscopic currents in HEK-293T cells were recorded at room temperature using an Axopatch 200B or Multiclamp 700B patchclamp amplifier (Molecular Devices, Sunnyvale CA). […] The extracellular solution contained (in mM): 135 NaCl, 20 TEACl, 5 BaCl2, 1 MgCl2, and 10 HEPES (pH adjusted to 7.25 with KOH, ~330 mOsm).
In all experiments of cellular electrophysiology, we employed synthetized analog of Cas, commercially available at Latoxan (ID: L8109). The native peptide was purified from the venom of Dendroaspis polylepis purchased from Latoxan, as previoulsly described. The pure peptide was obtained after gel filtration, cation exchange and C18 reversed phase chromatography. Its measured molecular mass (7036.26 Da average) was in accordance with the mass calculated from sequence data (7036.22 Da).

Cav3.1 T-type = experiment: Ca2+ current in HEK-293T cells expressing Cav3.1; format: cell-based; conditions: Cas 300 nM (n=13/N=3) and 1 µM (n=10/N=3); holding -80 mV, step -30 mV
Procedure: (§1) HEK-293T (RRID:CVCL_2737) were obtained from the European Collection of Authenticated Cell Cultures (ECACC 96121229). The identity of HEK-293T has been confirmed by STR profiling and the cells have been eradicated from mycoplasma at ECACC. We routinely tested the cells for the absence of the mycoplasma contamination. Cells were cultivated at 37 °C in DMEM supplemented with GlutaMax, 10% fetal bovine serum and 1% penicillin/streptomycin (Invitrogen, Fisher Scientific, France). […]
(§2) Macroscopic currents in HEK-293T cells were recorded at room temperature using an Axopatch 200B or Multiclamp 700B patchclamp amplifier (Molecular Devices, Sunnyvale CA). […]
(§3) In all experiments of cellular electrophysiology, we employed synthetized analog of Cas, commercially available at Latoxan (ID: L8109). […] Its measured molecular mass (7036.26 Da average) was in accordance with the mass calculated from sequence data (7036.22 Da). […]
(§4) n=10/N=3) channels. Peak current density wa s recorded starting f rom a holding potential of -80mV using an activating voltage step at -30mV for Cav3.1, f ro m a holding potential of -90mV using an activating voltage step at +20mV for Cav2.2 and f rom a holding potential of -80mV using an activating voltage step at 0mV for Cav2.1. Exam ples of recorded traces are reported. […]

Cav2.2 N-type = experiment: Ca2+ current in HEK-293T cells expressing Cav2.2; format: cell-based; conditions: Cas 300 nM (n=11/N=3) and 1 µM (n=9/N=3); holding -90 mV, step +20 mV
Procedure: as §1, §2, §3, §4

Cav2.1 P/Q type = experiment: Ca2+ current in HEK-293T cells expressing Cav2.1; format: cell-based; conditions: Cas 300 nM (n=10/N=3) and 1 µM (n=10/N=3); holding -80 mV, step 0 mV
Procedure: as §1, §2, §3, §4

RICYIHKASLPRATKTCVENTCYKMFIRTQREYISERGCGCPTAMWPYQTECCKGDRCNK (disulfide 3-22, 17-39, 41-52, 53-58 (inferred)) [Cas, calciseptine]
inhibition of DHP binding [1]: could inhibit binding of DHPs
effect on ICav1.3-42a (I-V relationship) (Cav1.3_42a; Cas 300 nM, all voltages tested, at peak p = 0.8148, n=9/N=4): no significant effect
L-type Ca2+ current density (Cav1.3_42a; Cas 300 nM, 0 mV, Ctrl -20.06± 5.37): -19.52± 4.21 pA/pF
L-type Ca2+ current density (Cav1.3_42a; Cas 300 nM, +10 mV, Ctrl -13.99± 3.71): -13.16± 2.99 pA/pF
L-type Ca2+ current density (Cav1.3_42a; Cas 300 nM, +20 mV, Ctrl -7.80± 2.21): -6.44± 1.89 pA/pF
L-type Ca2+ current density (Cav1.3_42a; Cas 300 nM, +30 mV, Ctrl -2.75± 1.09): -1.13± 1.30 pA/pF
L-type Ca2+ current density (Cav1.3_42a; Cas 300 nM, -10 mV, Ctrl -24.04± 6.83): -23.42± 5.08 pA/pF
L-type Ca2+ current density (Cav1.3_42a; Cas 300 nM, -20 mV, Ctrl -21.97± 6.85): -21.55± 4.86 pA/pF
reduction of ICav1.3-42a (Cav1.3_42a; all concentrations tested (up to 1 µM), holding −60 mV, step 0 mV, 300 nM n=13/N=4, 1 µM n=8/N=4): did not record a statistically significant reduction
effect on Cav3.1 current (Cav3.1 T-type): failed to detect inhibitory effect; also recorded: had no effect
effect on Cav2.2 current (Cav2.2 N-type): failed to detect inhibitory effect; also recorded: had no effect
effect on Cav2.1 current (Cav2.1 P/Q type): failed to detect inhibitory effect; also recorded: had no effect
